Measurements as given in the METLIN SMRT retention time set (Domingo-Almenara et al. 2019).

Test: gradient 5% acetonitrile 3 min, to 50% in 2 min, to 85% in 15 min, held 3 min, 100 µL/min
Conditions: column: Zorbax Extend-C18 2.1 x 50 mm; eluents: water / acetonitrile, 0.1% formic acid
How it was run: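 The mobile phases were water and acetonitrile, each with 0.1% formic acid, pumped at 100 μL/min through a Zorbax Extend-C18 column (2.1 × 50 mm, 1.8 μm). Pure standards were injected as mixtures of ~100 molecules and detected by a quadrupole time-of-flight mass spectrometer in positive and negative ionization mode. Retention time came from computationally picked adduct peaks, each inspected by hand.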

| SMILES | RP-LC retention time [s] |
| --- | --- |
| O=C(NC1CCCCCC1)c1ccc2c(c1)ncn2CCN1CCCC1 | 597 |
| O=S(=O)(c1ccc(Cl)cc1)N1CCC(c2noc(-c3ccccc3)n2)CC1 | 1170 |
| Cc1ccc(N2CC(c3nc(-c4cccs4)no3)CC2=O)cc1 (stereo not drawn) | 877 |
| O=C(NCC1CCCO1)c1nc(-c2ccnc(N3CCCCCC3)c2)no1 (stereo not drawn) | 641 |
| NC(=O)C1CCN(C(=O)c2cc(-c3ccccc3Cl)on2)CC1 | 674 |
| COc1ccc(NC(=O)Cn2cnc3c(sc4nc(-c5ccccc5)ccc43)c2=O)cc1Cl | 1030 |
| COc1ccc(NC(=O)c2cc3c(s2)CN(C2CCCC2)C3)c(OC)c1 | 616 |
| Cc1ccc(N2C(=O)N(Cc3ccccc3F)S(=O)(=O)c3cccnc32)cc1 | 1050 |
| CC1CCN(S(=O)(=O)c2ccc3nn(Cc4cccc(Cl)c4)c(=O)n3c2)CC1 | 1070 |
| COc1ccc(-n2ncc3c(=O)n(Cc4nc(-c5ccc(OC)c(OC)c5)no4)cnc32)cc1 | 910 |
| CC1CCCN(CCCNC(=O)c2cc(S(=O)(=O)N3CCCCC3)ccc2Cl)C1 (stereo not drawn) | 661 |
| CCc1noc(-c2cnc3nc(C)ccc3c2Nc2ccc3c(c2)OCO3)n1 | 720 |
| CCc1c(C(=O)OC)ncc2[nH]c3cc(OC)c(OC)cc3c12 | 702 |
| O=S(=O)(NCC1CCN(Cc2ccc(Cl)cc2)CC1)c1ccc2c(c1)-c1oncc1CO2 | 708 |
| CCCCCNC(=O)C1CCN(c2nccnc2Sc2ccc(C)cc2)CC1 | 1100 |
| CNc1nc(N2CCNC(=O)C2)nc2ccccc12 | 564 |
| COc1ccc(-c2ccc(=O)n(Cc3nc(-c4cccc(Br)c4)no3)n2)cc1 | 997 |
| Cc1nc(NC2CCCCC2)sc1C(=O)Nc1cccc(F)c1 | 872 |
| Cc1ccc(CNC(=O)Cn2c(N(C)Cc3ccccc3)nc(C)cc2=O)cc1 | 778 |
| CC(C)n1c(=O)n(CC(=O)N2CCCc3ccccc32)c2cc(S(=O)(=O)N3CCCC3)ccc21 | 947 |
| CCc1ccccc1NC(=O)N1C[C@H](c2nc(-c3ccccc3)no2)[C@@H](C)C1 | 1040 |
| O=c1n(Cc2ccccc2)nc2n1CCN(S(=O)(=O)c1ccc3c(c1)CCC3)CC2 | 931 |

| SMILES | RP-LC retention time [s] |
| --- | --- |
| O=C(NCC1CCCO1)C1c2ccccc2C(=O)N1Cc1ccc2c(c1)OCO2 (stereo not drawn) | 728 |
| COc1ccc(-n2ccn3cc(-c4ccc5c(c4)OCO5)nc3c2=O)cc1OC | 733 |
| CCc1noc(NC(C)=O)c1-c1ccc(C)c(S(=O)(=O)NCc2ccc(C)cc2)c1 | 886 |
| COc1cc(OC)cc(C(=O)N2C[C@@H]3C[C@H]2C[C@@H]3NS(=O)(=O)c2ccccc2)c1 | 792 |
| CC1CCCN(c2nc(=O)n(CC(=O)Nc3ccc(F)cc3)c3ccccc23)C1 (stereo not drawn) | 841 |
| O=C(NC1CC1)c1ccc2c(c1)CCN2C(=O)C1CCC1 | 721 |
| O=C(Nc1ccc2c(c1)OCCO2)N1CC[C@@H]2CN(Cc3ccccc3)[C@@H]2C1 | 796 |
| COc1ccc(NC(=O)c2ccc(C(=N)N(C)C)cc2)c(C(=O)Nc2ccc(Cl)cn2)c1 | 725 |
| O=C(Cn1ccn2nc(-c3ccc(F)cc3)c(CO)c2c1=O)NCCC1=CCCCC1 | 900 |
| C=C1C(=O)OC2C1CCC(C)C1(O)C=CC(=O)C21C (stereo not drawn) | 722 |
| CC(C)c1ccc(C(=O)Nc2nc3ccccc3[nH]2)cc1 | 672 |
| COC[C@@H]1CN(C(=O)c2cc(C)oc2C)C[C@H]1c1nc(C)no1 | 748 |
| COc1ccc(Nc2c(-c3ccc(SC)cc3)nc3cnccn23)cc1 | 908 |
| CCOc1ccc(S(=O)(=O)Nc2cc(-c3cn4cccc(C)c4n3)ccc2C)cc1 | 722 |
| Cn1c(=O)c(N2CCN(C(=O)c3ccc(Cl)cc3)CC2)nc2ccncc21 | 560 |
| CC(C)n1ncc(NC(=O)Cc2ccc(Cl)cc2)c(N2CCOCC2)c1=O | 856 |
| CCOC(=O)CC1(NC(=O)N2CCCn3nc(-c4ccncc4)cc3C2)CCCCC1 | 595 |
| CC(C)NCc1ccc(-c2ccc(Cl)cc2)o1 | 669 |
| CCOC(=O)c1cc(S(=O)(=O)N2CCCC2C(=O)Nc2ccc(C)cc2C)cn1C (stereo not drawn) | 957 |
| CCc1ccc(NC(=O)C2CCN(S(=O)(=O)c3ccc4c(c3)sc(=O)n4C(C)C)CC2)cc1 | 1060 |
| CCOC(=O)c1ccc(NC(=O)C2CCCN(S(C)(=O)=O)C2)cc1 (stereo not drawn) | 762 |
| O=C(C1CC1)N1CCc2sc(S(=O)(=O)NCc3cccc(F)c3)cc2C1 | 805 |

| SMILES | RP-LC retention time [s] |
| --- | --- |
| O=C(C1CCCN(c2ccc(Sc3ccc(Br)cc3)nn2)C1)N1CCSCC1 (stereo not drawn) | 932 |
| Cc1[nH]c(C(=O)N2CCC(CC(=O)NCCc3c[nH]c4ccccc34)CC2)c(C)c1C | 674 |
| O=C(CCSc1ccccc1)N1CCN(c2ccc(-c3ccccn3)nn2)CC1 | 644 |
| CCOc1ccccc1CN1CCc2nc(Nc3ccc(F)cc3)ncc2C1 | 616 |
| C=CCn1c(C)c(CC(=O)NCCC)c(=O)n2nc(-c3ccccc3)nc12 | 730 |
| CCN1CCC2(CC1)OC(=O)C(C)=C2C(=O)NCCCN1CCN(c2cc(C)ccc2C)CC1 | 586 |
| CCCn1c(=O)c(C)nc2cc(-c3noc(-c4cccc(F)c4)n3)ccc21 | 1210 |
| Cc1ccc(CNC(=O)c2cc(C)no2)cc1 | 793 |
| O=C(c1ccccc1Br)N1CCN(c2cc(-c3ccc(Cl)cc3)[nH]n2)CC1 | 913 |
| Cc1ccc(S(=O)(=O)N2C(=O)CCC2C(=O)Nc2cc(C)ccc2C)cc1 (stereo not drawn) | 939 |
| Cc1oc(-c2[nH]ncc2C(=O)N2CCCC2)cc1S(=O)(=O)N(C)C | 620 |
| CN(c1ccccc1CNc1nc(Nc2ccc3c(c2)CC(=O)N3)ncc1C(F)(F)F)S(C)(=O)=O | 713 |
| Cc1noc(C)c1CN1CCC(NC(=O)c2ccc(F)cc2F)C1 (stereo not drawn) | 580 |
| Cc1cccc(N2CCN(C(=O)C3c4ccccc4CCN3C(=O)C3CC3)CC2)c1C (stereo not drawn) | 1080 |
| CCOC(=O)c1cnc2nc(C)ccc2c1Nc1cc(Cl)ccc1F | 774 |
| CC1CCN(S(=O)(=O)c2ccc3nn(Cc4cc(F)cc(F)c4)c(=O)n3c2)CC1 | 1040 |
| CCc1nn(C)c(=O)c2cc(S(=O)(=O)NCc3ccc(Cl)cc3)cn12 | 911 |
| CCCn1c(=O)sc2cc(S(=O)(=O)N3CCC(C(=O)Nc4ccccc4)CC3)ccc21 | 965 |
| Cc1ccc(NC(=O)Nc2nc(CC(=O)Nc3ccc(F)c(F)c3)cs2)cc1 | 862 |
| Cc1cc(-c2c(C)sc(C)c2S(=O)(=O)NC2CCC(C)CC2)n[nH]1 (stereo not drawn) | 1140 |
| Cc1nc(N2CCCC2)cc(N2CCN(C(=O)c3ccccc3Br)CC2)n1 | 651 |
| COC(=O)CNC(=O)NCCn1c(-c2ccccc2)nc2cccnc21 | 591 |

| SMILES | RP-LC retention time [s] |
| --- | --- |
| Cn1c(=O)n(C)c2cc(CNc3ccc4c(c3)OCO4)ccc21 | 630 |
| COc1c(C(=O)Nc2ccc3c(c2)OCO3)sc2cc(Cl)ccc12 | 1180 |
| O=C(NCc1ccncc1)c1ccc(-c2cccs2)nc1 | 588 |
| CCOC(=O)C1CCC(CNC(=O)N2CCCn3nc(-c4cccnc4)cc3C2)CC1 (stereo not drawn) | 629 |
| COc1cccc(-n2c(N3CCCC(C(=O)NCC(C)C)C3)nc3ccsc3c2=O)c1 (stereo not drawn) | 818 |
| Cc1c(CC(=O)NCc2cccnc2)c(=O)n2nc(-c3ccccc3)nc2n1C | 575 |
| CC(=O)Nc1ccc(Br)cc1C(=O)C(=O)NCCc1c[nH]c2ccccc12 | 876 |
| CCN1c2ccc(C)cc2C(=O)NC12CCN(C(=O)c1ccc(Br)cc1)CC2 | 902 |
| CCN1C(=O)c2ccccc2Oc2ccc(C(=O)N3CCCCCC3)cc21 | 900 |
| O=C(O)c1nnn(-c2ccc(Cl)cc2)c1-c1ccncc1 | 663 |
| CCNC(=O)Cn1c(=O)c2cnc(-c3ccc(Cl)cc3)nc2n(C)c1=O | 927 |
| CCc1noc(-c2ccc(-n3ncc(C(=O)NC4CC4)c3C)nc2)n1 | 792 |
| Cc1nc(C2(C)CCN(S(=O)(=O)c3ccc(F)c(C)c3)CC2)no1 | 927 |
| COc1cccc(-c2nn3c(CSc4ccccc4)nnc3s2)c1 | 993 |
| COc1ccc(N2CCN(c3cc(SCC(=O)Nc4cc(OC)cc(OC)c4)ncn3)CC2)cc1 | 814 |
| COc1cccc(C(=O)NC2(C(F)(F)F)C(=O)N(CC(C)C)C3=C2C(=O)CC(C)(C)C3)c1 (stereo not drawn) | 1040 |
| CCCN(CC1CCOC1)C(=O)Nc1cc(Cl)ccc1C (stereo not drawn) | 901 |
| CN1CCCC1c1nc(C2CN(S(=O)(=O)c3ccc(C#N)cc3)C2)no1 (stereo not drawn) | 602 |
| Cc1cc(F)ccc1NC(=O)c1cnn2c1CCCC2 | 720 |
| Cn1nc(C(=O)N2CCC(C(=O)N3CCCC3)CC2)c2c1CCN(C(=O)Cc1ccc(F)cc1)C2 | 679 |
| Cc1ccc(-c2c(C(F)(F)F)nn3c(N4CCN(c5ccccn5)CC4)cc(C)nc23)cc1 | 910 |
| Cc1ccccc1C(=O)NC1CCN(c2cc(-c3cccs3)[nH]n2)C1 (stereo not drawn) | 705 |
